We go through 65 molecules from a melting point compilation (Tetko et al.; mined from patent text by program, amines drawn as free bases though some values may be those of a salt).

In the case of `CC(=O)c1cc(C(C)=O)cc(S(N)(=O)=O)c1`, the melting point lay within 179 to 181 °C.
As for `Oc1cc(-c2cccc(C(F)(F)F)c2)nc2ccnn12`, the figure is 305 to 310 °C; as for `Cc1noc(CC(=O)O)n1`, 95 °C.
`CC(C)(C)OC(=O)NC1C=CCC2C(=O)NC(=O)C12` (stereo not given): the melting point was 158 to 160 °C.
For `CC(=O)SCC(Cc1ccccc1)C(=O)Nc1cc2ccccc2cc1C(=O)O` (stereo not given) the value was 138 to 141 °C; for `CCc1[nH]n(C2CCCC2)c2nc(Cc3ccc(OCC(=O)O)cc3)nc(=O)c1-2`, 218 to 220 °C.
Consider `O=c1c(Nc2ccc(Cl)cc2)nc2ccccc2n1-c1ccc(Cl)cc1`, for which the melting point lay within 258 to 260 °C.
For `Cc1cc(-c2cc(C(F)(F)F)n3ncc(-c4nc(-c5cnc(N)nc5)no4)c3n2)ccc1Cl` the value was 272 °C.
For `CC(C)=CCNc1cccc(-c2ccnc3c(C(=O)c4cccs4)cnn23)c1`, the melting point fell in the range of 116 to 118 °C.
For `COCc1cnc2c(NC(=O)c3c(Cl)cccc3Cl)cccc2c1CO` the value was 199 to 200 °C.
For `O=C1NCCN1CCN1CCC(c2noc3cc(F)ccc23)CC1` the value was 137 to 141 °C; for `Cc1csc2ccc3[nH]c4c(c3c12)CNCC4`, 234 °C.
As for `O=C1C[C@H](O)C[C@@H](/C=C/c2cnc3ccccc3c2-c2cccs2)O1`, the figure is 102 to 104 °C.
With `C=Cc1ccc2ccccc2c1-c1ccc(O)c(OC)c1`, the melting point fell in the range of 83 to 86 °C.
For `Cc1cccc2ncc(C(=O)Nc3ccccc3)c(=O)n12` the value was 186 to 188 °C; for `CCCCNc1nc(N)nc(-c2ccc(Cl)c(Cl)c2)n1`, 176 to 179 °C.
As for `CCOC(Cc1ccc(OCCN(C)c2nc3ccccc3o2)cc1)C(N)=S` (stereo not given), the figure is 46 to 48 °C.
For `CC1(C)CN2C(=O)c3ccccc3C(O)(c3ccccc3)C2=N1` (stereo not given) the value was 186 to 188 °C; for `CC(C)(C)c1ccc(C(=O)Nc2cn3cc(-c4cnc[nH]4)ccc3n2)cc1`, 297 to 298 °C.
Molecule `CCCCCCCCOc1ccc(-c2ccc(C3CCC(CCC)C3)cc2)cc1` (stereo not given) came in with a melting point of 84 °C.
On to `O=C(Nc1ccccc1)N1C(=O)C2(CCCCC2)N(O)C12CCCCC2`, for which the melting point was 125 to 128 °C.
For `N#CSc1cc(Cl)c(NCCC(=O)O)cc1Cl` the value was 133 to 135 °C.
For `Clc1cccc(-c2nc(-c3ccccn3)no2)c1` the value was 136 to 140 °C; for `CCc1c(C(=O)c2cc(C)cc(C)c2)n(C/C=C/CN=[N+]=[N-])c(=O)[nH]c1=O`, 119 to 120 °C; for `CCC(c1oc2ccccc2c(=O)c1-c1cccc(F)c1)n1cnc2c(N)ncnc21` (stereo not given), 102 to 107 °C.
As for `COCCN1C(=O)CCCc2c1ccc(Nc1ncc(Cl)c(Nc3ccc(N4CCOCC4)cc3OC)n1)c2OC`, the figure is 136 to 138 °C.
Regarding `Cc1cc(Cl)c([N+](=O)[O-])c(Cl)n1`, the melting point lay in the range of 69 to 70 °C.
In the case of `CCOC(=O)c1c(-c2ccccc2Cl)c2cc(CC)ccc2n(C)c1=O`, the melting point is 125 to 126 °C.
For `CON(C)C(=O)c1ccoc1` the value was 39 to 42 °C; for `COC(=O)C(Cc1ccc(O)cc1)c1cc2cc(C#N)ccc2o1` (stereo not given), 110 to 111 °C.
For `CCOC(=O)Nc1cc2c3ccccc3n(CC)c2cn1` the value was 217 to 218 °C; for `CC(C)N(Cc1ccccc1)S(=O)(=O)N[C@@H](Cc1ccc(NC(=O)c2c(Cl)cccc2Cl)cc1)C(=O)O`, 159 °C.
As for `C=C1CCCC2(C)C1=CC(=O)C1C3CCC(=O)C3(C)CCC12` (stereo not given), the figure is 132 °C.
On to `Cc1ccc(-c2c(N=[N+]=[N-])ncnc2OCCO)cc1`, for which the melting point fell in the range of 83.5 to 85 °C.
`O=C(Nc1ccc(OCCN2CCOCC2)c2ccccc12)OCC(Cl)(Cl)Cl` showed a melting point of 124 to 125 °C.
For `CCCOc1n[nH]c(=O)n1C1CC1` the value was 105 to 106 °C; for `COC(=O)C(CCSC)N(C(=O)OC(C)(C)C)C(=O)c1ccc(N)c(C)c1` (stereo not given), 163 to 165 °C.
As for `C=CC(=O)OC1CC(C)(C)N(OC2CCCCC2)C(C)(C)C1`, the figure is 49 to 52 °C.
For `Cn1c(C2=CC(=O)c3ccccc3C2=O)ccc1C1=CC(=O)c2ccccc2C1=O` the value was 320 to 321 °C; for `CC12C=CC(=O)C=C1C(N)CC1C2CCC2(C)C(=O)CCC12` (stereo not given), 186 to 191 °C.
Turning to `CN1C(=O)C(c2ccccc2)(C23CC4CC(CC(C4)C2)C3)N=C1N` (stereo not given), the melting point came out at 250 °C.
Take `Cn1ncc2c1C(=O)C(Cl)=C(NC1CC1)C2=O`: the melting point is 175 to 176 °C.
For `CC(=O)Nc1ccc(C#CCCN2CC=C(c3ccccc3)CC2)cn1` the value was 169 to 170 °C.
Molecule `NC(=O)Cc1nc2ccnc(-c3cccc(C(F)(F)F)c3)n2n1` gave a melting point of 218 to 220 °C.
As for `CCCCCCCCCCCCCCCC(=O)SC1CCN(C(C(=O)OC)c2ccccc2F)CC1` (stereo not given), the figure is 44 to 47 °C; as for `COc1ccc(CC[C@H]2CNCCN2)cc1`, 125 to 130 °C.
In the case of `NS(=O)(=O)c1ccc(CCI)cc1`, the melting point is 227 °C.
For `Cc1c(C(=O)C2C(=O)CCCC2=O)ccc(S(C)(=O)=O)c1S(C)(=O)=O` the value was 301 to 302 °C; for `COc1ccc(-c2[nH]c(=O)c3cc(OC)ccc3c2N2CCOCC2)cc1`, 139 °C.
As for `CCCCc1oc2ccccc2c1C(=O)c1ccc2c(Br)c(OCc3nnn[nH]3)ccc2c1`, the figure is 160 to 162 °C; as for `CC(C)(C)OC(=O)C(CCCCNC(=O)OCc1ccccc1)NC(=O)C(F)(F)F` (stereo not given), 77 to 79 °C.
For `CCOP(=O)(CCN1CCC(N(C)S(=O)(=O)c2ccc(Nc3nccc(Nc4ccc(F)c(F)c4)n3)cc2)CC1)OCC` the value was 93 to 96 °C; for `O=CNc1cc(F)ccc1F`, 112 to 114 °C; for `N#Cc1ccccc1N1CCN(CC(=O)Nc2ccccc2)CC1`, 137 to 138 °C.
For the molecule `COc1cc2cc3c(ccc4ccccc43)nc2cc1OC`, the melting point is 181 to 182 °C.
In turn, `CNc1nc(N)nc(NC)n1` registered a melting point of 291 °C.
For `CCC(O)(C(=O)NC(C)c1ccccc1)c1cc2n(c(=O)c1CO)CCC21OCCO1` (stereo not given) the value was 115 to 116 °C; for `CC(C)[C@@H](CO)NS(=O)(=O)c1ccc(Br)cc1`, 89 to 94 °C.
`COC(=O)C#CC(=O)c1ccc2c(c1)OCO2` showed a melting point of 95 to 97 °C.
As for `Cn1ncc2c1-c1c(Oc3ncccn3)sc(C(=O)O)c1CC2`, the figure is 256 to 258 °C; as for `N#CSc1nc(C(F)(F)F)nc2ccccc12`, 134 to 136 °C.
As for `COCCn1nc2c(N)nc3ccccc3c2c1CC(C)(C)C(N)=O`, the figure is 225 to 226 °C; as for `O=C1CC(=O)C2C3C=CC(C3)C12` (stereo not given), 183 °C.
For `O=C(O)c1cccc2cc(-c3ccc(Cl)cc3)oc12` the value was 228 to 230 °C; for `COC(=O)c1ccc(OCCNC(=O)C2Cc3ccccc3N2S(=O)(=O)c2ccc(-c3cccc(C(F)(F)F)c3)cc2)cc1F` (stereo not given), 63 to 70 °C.

As usually defined, the melting point is the temperature of the solid-liquid transition.
